The test system of assay [1] is G3BP1 and FUS R495X puncta in U2OS cells with tdTomato-tagged endogenous G3BP1. Put plainly: Pretreatment before FUS R495X transfection, cytoplasmic puncta area. The format is cell-based. Particulars: 50 μM, 20 min before FUS R495X transfection, 24 h. On the procedure:
U2OS cells with knock-in of G3BP1-tdTomato ([Yang et al., 2020]) were seeded into 96-well plates (3904; Corning). Either GFP-VCP-A232E or GFP-FUS-R495X were transfected into cells using ViaFect transfection reagent (Promega) 24 h prior to the start of the experiment. For samples to be treated with compounds G3Ia or G3Ia′, Hoechst (1:5,000; Biotium) was added and incubated for 30 min prior to the start of the experiment, washed once with PBS, and the media was changed to 100 μl FluoroBrite DMEM media (Gibco) upon starting the experiment. Imaging of plates was performed on a Cytation C10 spinning disk confocal (BioTek) with a Hamamatsu Orca-Flash 4.0 camera using Gen5 software (version 3.11). Imaging was performed through an Olympus Plan Apo 40× 0.6 NA dry objective with an adjustable collar set to 0.5 μm thickness. Laser autofocus prior to imaging the tdTomato channel was utilized for each image. The temperature was maintained at 37°C on the instrument and the cells were supplied with 5% CO2. A 7 × 7 tilescan was taken at the center of each well, capturing the tdTomato and GFP channels (and Hoechst when present). After completing the tilescan, 100 μl FluoroBrite with 100 μM (2×) G3I compound (vortexed for 5 s) was added to each well and incubated for 20 min before starting another round of imaging in the same locations as the first round. Samples treated with G3Ib or G3Ib′ were analyzed manually, scoring each cell with spontaneous granules for the presence or absence of granules following treatment with the compound. For experiments in which G3I compounds were pretreated prior to transfection, 50 μM of indicated compound or vehicle control were added to U2OS cells 20 min prior to the addition of the transfection reagent. After 24 h of transfection, the cells were washed with PBS, fixed in 4% formaldehyde, and incubated with Hoechst (1:5,000; Biotium) in PBS for 30 min prior to the start of the experiment, washed once with PBS, and at room temperature imaging on the Cytation C10 spinning disk confocal was performed as described above.
Samples treated with G3Ia or G3Ia′ were analyzed using an automated pipeline. Segmentation was performed in both ilastik and Cellpose 2.0. Nuclear segmentation using the Hoechst channel and granule segmentation in both GFP and tdTomato channels was performed via pixel classification in ilastik using small cropped portions of the tilescan as the training dataset for each. Individual cell segmentation was performed in Cellpose 2.0 by inputting a merged RGB of the Hoechst and G3BP1-tdTomato channels. The Cellpose output was then eroded by one pixel and set as a binary mask in Fiji. […]

Assay [2] deals with T1, co-condensation of RNA, G3BP1, and caprin 1 (Homo sapiens, UniProt Q13283).
T1 construct: made in house; host or cells: E. coli BL21 (DE3)
T1 sequence (Q13283 whole entry): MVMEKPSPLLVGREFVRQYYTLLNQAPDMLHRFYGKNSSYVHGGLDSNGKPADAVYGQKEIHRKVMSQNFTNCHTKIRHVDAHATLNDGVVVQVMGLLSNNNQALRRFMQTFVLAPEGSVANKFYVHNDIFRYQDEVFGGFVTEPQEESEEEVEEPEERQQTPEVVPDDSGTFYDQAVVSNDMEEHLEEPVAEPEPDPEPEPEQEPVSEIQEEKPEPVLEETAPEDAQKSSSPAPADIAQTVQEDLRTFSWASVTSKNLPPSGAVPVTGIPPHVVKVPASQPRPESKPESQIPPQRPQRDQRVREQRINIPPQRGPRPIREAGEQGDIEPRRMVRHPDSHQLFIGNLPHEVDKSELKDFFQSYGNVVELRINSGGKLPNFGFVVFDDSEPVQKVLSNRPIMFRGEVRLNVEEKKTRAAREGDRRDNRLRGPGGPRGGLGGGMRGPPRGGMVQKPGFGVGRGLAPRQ
T1 sequence (Q13283 whole entry): as above
Put plainly: In vitro LLPS, three-component system (G3BP1, caprin 1, RNA). The format is biochemical. Particulars: for IC50, inhibition of G3BP1-GFP in vitro phase separation / LogIC50, inhibition of G3BP1-GFP in vitro phase separation / IC50: 1.5 μM G3BP1, 1.5 μM caprin 1, 20 ng/μl total RNA; for IC50: read-out: IC50, inhibition of G3BP1-GFP in vitro phase separation; for co-condensation of caprin 1, G3BP1, and RNA: result in words; for HillSlope, inhibition of G3BP1-GFP in vitro phase separation: slope at the steepest part of the curve; for Bottom (lowest value of curve), percent inhibition of in vitro phase separation / Top (highest value of curve), percent inhibition of in vitro phase separation: three-component system. As to the method:
LLPS assays were performed in 30 μl total volume at 25°C at pH 7.4 in buffer containing 37 mM Tris, pH 7.5, 116 mM NaCl, 0.33% NP-40, 2.6% glycerol, 0.5 mM DTT with 20 ng/μl total cellular RNA from U2OS cells and 1.425 μM G3BP1, 0.075 μM FLAG-GFP-G3BP1, and 1.5 μM caprin 1. Reactions were initiated by adding G3BP1/caprin 1 protein mix to cellular RNA, followed by 3 min of shaking at 450 rpm and then incubation for 70 min in the dark. For condensates formed with G3BP1 and RNA, 20 μM purified G3BP1 and 100 ng of total cellular RNA from HEK293T cells were added to a buffer consisting of 100 mM NaCl and 16.7 mM HEPES (pH 7.5) in the presence of the indicated dose of G3Ib or vehicle control.

Regarding `CC(NC(=O)C(NC(=O)C(NC(=O)CCC(C)(C)C)C(C)(C)O)C(C)c1ccccc1)C(=O)N1CCCC1c1ccccc1` (stereo not shown) [G3Ib], in assay [1], the “area of G3BP1 found in puncta compared with vehicle-treated cells” value is listed as “reduced the area of G3BP1 found in puncta”; the “formation and incorporation of FUS R495X into cytoplasmic granules” value was “failed to block the formation and incorporation of FUS R495X into cytoplasmic granules”. Besides, in assay [2], the “IC50, inhibition of G3BP1-GFP in vitro phase separation” value is listed as “Unstable”; the “LogIC50, inhibition of G3BP1-GFP in vitro phase separation” value (from here on “LogIC50, inhibition of G3BP1-GFP”) was 0.5379; the IC50 stood at 3.45 µM; the “co-condensation of caprin 1, G3BP1, and RNA” value is listed as “disrupted the co-condensation”. In assay [2], the “HillSlope, inhibition of G3BP1-GFP in vitro phase separation” value (from here on “HillSlope, inhibition of G3BP1-GFP”) is recorded as 1.004; the “Bottom (lowest value of curve), percent inhibition of in vitro phase separation” value was 4.401; the “Top (highest value of curve), percent inhibition of in vitro phase separation” value amounted to 1.518. In assay [2] (listed as G3Ib'), the “LogIC50, inhibition of G3BP1-GFP” value is recorded as “Unstable” and the “HillSlope, inhibition of G3BP1-GFP” value is “Unstable”.

As for `COCCC(NC(=O)C(C)NC(=O)C(NC(=O)C(NC(=O)C(F)CC(C)(C)C)C(C)(C)O)C(C)c1ccccc1)C(=O)N(C)Cc1ccccc1` (stereo not shown) [G3Ia], in assay [1], the “area of G3BP1 found in puncta compared with vehicle-treated cells” value is listed as “reduced the area of G3BP1 found in puncta”; the “formation and incorporation of FUS R495X into cytoplasmic granules” value was “failed to block the formation and incorporation of FUS R495X into cytoplasmic granules”. Besides, in assay [2], the “IC50, inhibition of G3BP1-GFP in vitro phase separation” value is given as “Unstable”; the “LogIC50, inhibition of G3BP1-GFP” value was 0.6508; the IC50 was 4.48 µM; the “co-condensation of caprin 1, G3BP1, and RNA” value was “disrupted the co-condensation”. In addition, in assay [2], the “HillSlope, inhibition of G3BP1-GFP” value was found to be 1.354; the “Bottom (lowest value of curve), percent inhibition of in vitro phase separation” value is “Unstable”; the “Top (highest value of curve), percent inhibition of in vitro phase separation” value is listed as “Unstable”. Besides, in assay [2] (listed as G3Ia'), the “LogIC50, inhibition of G3BP1-GFP” value is recorded as “Unstable” and the “HillSlope, inhibition of G3BP1-GFP” value was “Unstable”.

The record behind these values is article PMC10824102, “Identification of small molecule inhibitors of G3BP-driven stress granule formation” (The Journal of Cell Biology, 2024).
